Here are results for 2 compounds from patent US20180185391A1, “Drug Treatment Of Psoriasis And Of Other Skin Disorders Associated With Inhibition Of Differentiation Of Epidermal Cells” (priority 2016, published 2018).

In data set [1] the test system is psoriatic lesions. The experiment in a line: Clinical observation of psoriatic plaques under topical treatment. The data set is classed as in vivo, human. The protocol:
The base cream used is made predominantly of heavy paraffin oil (10% w/w), vaseline (10% w/w), stearyl alcohol (8% w/w), polyoxylsteareth-40 (3% w/w) and water (68% w/w) but another suitably formulated base cream is also possible. […] The dosing and the application schedules followed for the lesion shown in FIG. 1A (psoriatic plaque on the dorsum of hand) are as follows: about 30 μl cream applied directly onto the lesion with the aid of a steel spatula every four hours for 24 hours. The cream-applied area is protected from accidental smearing and loss of the cream by covering with an aluminum applicator (FIG. 1 B). The dosing and the application schedules followed for the lesion shown in FIG. 1 D (psoriatic plaque at the scapular region) are as follows: about 30 μl cream applied directly onto the lesion every four hours for 24 hours. The cream-applied area is similarly covered against the smearing and loss of cream. Other treated psoriatic patients and lesions received from about 30 to 35 μl cream to each lesion at intervals of every 3 to 5 hours, as suitable and convenient. Lesions were similarly covered against the smearing and loss of cream. […] The corticosteroid used for treatment of the lesion shown in FIG. 4E was clobetasol 17-propionate in a final concentration of about 1.1 mM in base cream.

Data set [2] concerns palmoplantar pustulosis lesions. As to conditions: 0.55 mM alone for 4 days; cited from earlier work.
In data set [3] the test system is human epithelial antigen. The experiment in a line: Immunohistochemical staining for epithelial antigen with Ber-EP4 antibody. The class given is in vivo. The source says:
All reaction conditions were as recommended by the manufacturer.
The monoclonal antibody Ber-EP4 is known to label the basal layer cells in normal epidermis. The outer root sheath of hair follicles, where the hair stem cells are thought to reside, are also known to be labeled with Ber-EP4.

Data set [4] relates to cytokeratin 15. The experiment in a line: Immunohistochemical staining with C8/144B antibody (cytokeratin 15). The source says:
All antibodies and reagents for these immunohistochemical investigations were purchased from DAKO (Glostrup, Denmark); human Ki-67 antigen was detected by the monoclonal antibody M7187, human epithelial antigen was detected by the monoclonal antibody Ber-EP4, human CD4 antigen was detected by the monoclonal antibody M0716, human CD8 antigen was detected by the monoclonal antibody C8/144B. Besides the CD8 antigen, the monoclonal antibody C8/144B is known to recognize and bind to the cytokeratin 15 expressed by the hair stem cells (Kanitakis J. et al. (1999) Eur. J. Dermatol. 9:363-365). A DAKO “universal visualization kit” (LSAB2) employing biotinylated secondary antibody and peroxidase-conjugated streptavidin (pre-diluted to match the dilutions of DAKO-supplied primary antibodies) was used for the visualization reactions. All reaction conditions were as recommended by the manufacturer.

The subject of data set [5] is psoriatic lesional skin. The experiment in a line: Histopathological examination (H&E) of treated psoriatic lesional skin sections. The data set is classed as in vivo, human. To be noted: 24th hour of treatment. The method, then:
FIG. 1A and FIG. 1C show a psoriatic plaque before and after exposure to cyclopamine and the rapid clinical regression. The cyclopamine cream was applied to the proximal half of this lesion present on the dorsum of right hand of a patient having plaque-type psoriasis. At intervals of 4 hours, approximately 30 μl cream was applied directly onto the lesion and the cream-applied region was covered against accidental smearing and loss of the cream (FIG. 1 B).
FIG. 2A to FIG. 2W show histopathological and immunohistochemical examination findings of the tissue sections from the non-lesional skin, cyclopamine-treated lesional skin and non-treated lesional skin. Compared to the non-lesional skin (FIG. 2A), the non-treated lesional skin (FIG. 2B) is seen to display the typical histopathological signs of a psoriatic skin lesion mentioned above in the “Background of Invention”. […] These histopathological signs of regression to normalcy, exemplified in the figures FIG. 2C and FIG. 2D (examples from other cyclopamine-treated lesions and patients are given later) include the following: […]

Data set [6] has as its system healthy skin. The experiment in a line: Follow-up of healthy and non-lesional skin for adverse effects of topical cyclopamine. To be noted: for adverse effect on healthy / non-lesional skin: topical application under the described concentration and dosing conditions. The source says:
Genetic heterogeneity and different ages of the psoriatic patients as well as the localizational heterogeneity of psoriatic lesions throughout body invite evaluation of the use of cyclopamine on different patients and lesions.
As there is evidence for the involvement of the hedgehog/smoothened signal transduction pathway in the maintenance of epidermal stem cells, untoward side effects of cyclopamine on skin are, a priori, possible and must be excluded.

The mark [7] stands for this setting: psoriatic lesional skin, 24th hour of treatment.

SMILES strings stand for the structures. “Also recorded” adds a separate entry of the source.

As for `CCC(=O)O[C@]1(C(=O)CCl)[C@@H](C)C[C@H]2[C@@H]3CCC4=CC(=O)C=C[C@]4(C)[C@@]3(F)[C@@H](O)C[C@@]21C` [clobetasol 17-propionate, reference compound], in data set [1] (about […], alone, four days of treatment), the “regression or clearance of psoriatic lesions” value was “unable to cause a significant regression or clearance”. Moreover, the “effect on palmoplantar pustulosis lesions” value in data set [2] is listed as “not to produce a perceptible effect”.
On to `CC1=C2C[C@H]3[C@@H](CC=C4C[C@@H](O)CC[C@@]43C)[C@@H]2CC[C@]12O[C@@H]1C[C@H](C)CN[C@H]1[C@H]2C` [cyclopamine], for which the “Ber-EP4 labeling of basal cells of non-lesional skin” value in data set [3] (non-lesional skin after exposure to cyclopamine) is “remained Ber-EP4 positive”. For the same compound, the “Ber-EP4 labeling of epidermal basal layer cells” value in data set [3] (setting [7]) is given as “reverted to normalcy; also recorded: reversion to normalcy; also recorded: Epidermal basal layer cells are seen to display the epithelial antigen”. The “cytokeratin 15 in basal cells of non-lesional epidermis” value in data set [4] (non-lesional epidermis exposed to cyclopamine) is “continued to be positive for the cytokeratin 15”. In addition, the “C8/144B (cytokeratin 15) labeling of epidermal basal layer cells” value in data set [4] (setting [7]) was “normalized and became labeled by the C8/144B antibody; also recorded: reversion to normalcy”. Besides, the “erythema of the psoriatic plaque” value in data set [1] (12th hour of treatment, scapular plaque, cyclopamine applied for a day then discontinued) is recorded as “decreased erythema”. Moreover, the “effectiveness on psoriatic lesions (regression and clearance)” value in data set [1] (every lesion treated, unrelated patients 29 to 57 years, extremities to trunk) is “highly effective”. Further, the “state of the psoriatic plaque” value in data set [1] (fourth day of follow-up, scapular plaque, 1 day of treatment, still visible) is listed as “marked regression”. Moreover, in data set [1] (human, in vivo), the “lesions subjected to the single-day treatment that failed to clear completely” value is recorded as “about 29%”. The “day on which the lesion cleared” value in data set [1] (scapular plaque, cyclopamine applied for a day then discontinued) is greater than 8 days. Also, the “granular layer of epidermis” value in data set [5] is listed as “Re-appearance of the granular layer”. Also, the “histopathological signs of the psoriatic lesion” value in data set [5] was “dramatic improvement and regression to normalcy; also recorded: regression of the psoriatic plaque”. The “appearance of skin sites of cyclopamine application” value in data set [6] (follow-up over a period of more than 31 months) was “healthy-looking normal skin and hair”. The “adverse effect on healthy / non-lesional skin” value in data set [6] was “no adverse effect has been detected”; in data set [6] (listed as Cyclopamine), “did not adversely affect the non-lesional skin; also recorded: no detectable adverse effect”.
